According to US20110173718A1, “HERBICIDE TOLERANT PLANTS” (SYNGENTA CROP PROTECTION, INC., priority 2008, published 2011):
Values joined by “and” are separate entries in the source; they are usually repeats but may differ in a detail not shown here. Equal entries are not always repeated.

Tested on: Arabidopsis HST transgenic tobacco plants
Assay: Glasshouse spray test, Arabidopsis HST transgenic tobacco
Type: in vivo
Details: for % damaged: 8 DAT; for blch (% bleaching at the meristem relative to control plants) / ht (% height reduction relative to control plants): 100 g; for blch (% bleaching at the meristem relative to control plants) / ht (% height reduction relative to control plants) / Damage % 5 DAT / Damage % 10 DAT: individual T0 lines; for Damage % 5 DAT / Damage % 10 DAT: 10 g/ha
Excerpt: For example the Arabidopsis HST SEQ ID # 11 is cloned behind a double 35s CMV promoter sequence and a TMV translational enhancer sequence and in front of the 3′ terminator from the nos gene. This expression cassette is ligated into pMJB1 (described in WO98/20144) and then into pBIN19 and then transformed into Agrobacterium tuniqfaciens strains LBA4404 prior to plant transformation.
For example, the full length Arabidopsis HST seq ID # 11 is fused to the TMV translational enhancer sequence (SEQ ID #33) by overlapping PCR and, at the same time, 5′ XhoI site and a 3′KpnI site are added by PCR. Site-directed mutagenesis is performed to remove an internal XhoI site. The TMV/HPPD fusion is removed from the pBIN19 by digestion with XhoI/KpnI and is replaced by the TMV/HST fusion (SEQ ID #34). The TMV/HST fusion is now cloned behind a double 35s promoter and in front of the 3′ terminator from the nos gene. Again the modified pBIN19 vector (‘pBinAT HST’) is then transformed into Agrobacterium tumefaciens strain LBA4404.
A master plate of Agrobacterium tumefaciens containing the binary vector pBinAT HST (described above) or analogous binary vector comprising a different HST is used to inoculate 10 ml LB containing 100 mg/1 Rifampicin plus 50 mg/1 Kanamycin using a single bacterial colony. This is incubated overnight at 28° C. shaking at 200 rpm. This entire overnight culture is used to inoculate a 50 ml volume of LA (plus antibiotics). Again this is cultured overnight at 28° C. shaking at 200 rpm. The Agrobacterium cells are pelleted by centrifuging at 3000 rpm for 15 minutes then resuspended in MS medium with 30 g/1 sucrose, pH 5.9 to an OD ([…])=0.6. This suspension is dispensed in 25 ml aliquots into petri dishes.
Clonal micro-propagated tobacco shoot cultures are used to excise young (not yet fully expanded) leaves. The mid rib and outer leaf margins are removed and discarded, the remaining lamina is cut into 1 cm squares. These are transferred to the Agrobacterium suspension for 20 minutes. Explants are then removed, dabbed on sterile filter paper to remove excess suspension then transferred to NBM medium (MS medium, 30 g/1 sucrose, 1 mg/1 BAP, 0.1 mg/1 NAA, pH 5.9, solidified with 8 g/1 Plantagar), with the abaxial surface of each explant in contact with the medium. Approximately 7 explants are transferred per plate, which are then sealed then maintained in a lit incubator at 25° C., 16 hour photoperiod for 3 days.
Explants are then transferred to NBM medium containing 100 mg/1 Kanamycin plus antibiotics to prevent further growth of Agrobacterium (200 mg/1 timentin with 250 mg/1 carbenicillin). Further subculture on to this same medium is then performed every 2 weeks.
As shoots start to regenerate from the callusing leaf explants these are removed to Shoot elongation medium (MS medium, 30 g/1 sucrose, 8 g/1 Plantagar, 100 mg/1 Kanamycin, 200 mg/1 timentin, 250 mg/1 carbenicillin, pH 5.9). Stable transgenic plants readily root within 2 weeks. To provide multiple plants per event to ultimately allow more than one herbicide test per transgenic plant all rooting shoots are micropropagated to generate 3 or more rooted clones.
Putative transgenic plants that are rooting and show vigorous shoot growth on the medium incorporating Kanamycin are analysed by PCR using primers that amplified a 500 bp fragment within the Arabidopsis HST transgene.
Rooted transgenic T0 plantlets are transferred from agar and potted into 50% peat, 50% John Innes soil no 3 or, for example, MetroMix® 380 soil (Sun Gro Horticulture, Bellevue, Wash.) with slow-release fertilizer in 3 inch round or 4 inch square pots and left regularly watered to establish for 8-12 d in the glass house. Glass house conditions are about 24-27° C. day; 18-21° C. night and approximately a 14 h (or longer in UK summer) photoperiod. Humidity is ˜65% and light levels up to 2000 μmol/m^2 at bench level. […]

For Oc1c(Cl)c(F)nc(F)c1Cl [Compound 1.1, haloxydine], which “% damaged” value (250 g/ha, line E9) is on record?
Its value is 20% and 40%.

And the “% damaged” value (250 g/ha, line F6)?
The value was 50% and 75%.

And the appearance of plants (250 g/ha, 25 DAT, line E9)?
Its appearance of plants is “healthy and similar sized to untreated control plants”.

And the “% damage” value (250 g/ha, 25 DAT, line F6)?
The value was 50-70%.

Which results are given for CC(C)C(=O)Oc1c(-c2c(F)ccc(Br)c2Cl)c(=O)n(CC(F)F)c2nccnc12 [Compound 2.30]?
blch (% bleaching at the meristem relative to control plants) (7 DAT): 30% (2×) and 5% (4×) and 10% (3×) and 15% (2×) and 50% and 70% (2×) and 20% (2×) and 0% (5×) and 40% and 100% and 80% and 25%; ht (% height reduction relative to control plants) (7 DAT): 30% (4×) and 0% (7×) and 50% and 70% (3×) and 80% (3×) and 40% (2×) and 5% and 10% (2×) and 15% and 20%; blch (% bleaching at the meristem relative to control plants) (26 DAT): 25% (2×) and 0% (16×) and 100% and 85% (2×) and 90% (4×); ht (% height reduction relative to control plants) (26 DAT): 75% (2×) and 5% (6×) and 15% (2×) and 30% (4×) and 50% (2×) and 60% and 80% and 90% (4×) and 35% and 10% (2×)

What does the source list for CS(=O)(=O)c1ccc(C(=O)C2C(=O)CCCC2=O)c([N+](=O)[O-])c1 [Mesotrione, mesotrione, reference compound]?
Damage % 5 DAT (T0 line 332): 30%; Damage % 5 DAT (T0 line 351): 50%; Damage % 5 DAT (T0 line 367): 25%; Damage % 5 DAT (T0 line 404): 45%; Damage % 5 DAT (T0 line 426): 45%; Damage % 10 DAT (T0 line 332): 10%; Damage % 10 DAT (T0 line 351): 25%; Damage % 10 DAT (T0 line 367): 10%; Damage % 10 DAT (T0 line 404): 20%; Damage % 10 DAT (T0 line 426): 20%; ht (herbicidal damage) (Arabidopsis HST T0 tobacco events (one value per event), 15 g/ha of mesotrione, 21 DAT): 80 and 90 and 85 and 70 and 75
